Results: paper PMC4721062, “Oxadiazole-2-oxides may have other functional targets, in addition to SjTGR, through which they cause mortality in Schistosoma japonicum” (Parasites & Vectors, 2016)
Where two headings read alike, the source gives them in different places.

Columns and labels:
recombinant SjTGR = target: T1, recombinant SjTGR (Schistosoma japonicum, UniProt B5THG7); assay: Inhibition of TrxR activity of recombinant SjTGR (DTNB assay); format: biochemical; details: 50 nM SjTGR, 1 mM NADPH, 15 min preincubation, DTNB reduction; for IC50: read-out: IC50 of SjTGR
T1 sequence (B5THG7 1-596): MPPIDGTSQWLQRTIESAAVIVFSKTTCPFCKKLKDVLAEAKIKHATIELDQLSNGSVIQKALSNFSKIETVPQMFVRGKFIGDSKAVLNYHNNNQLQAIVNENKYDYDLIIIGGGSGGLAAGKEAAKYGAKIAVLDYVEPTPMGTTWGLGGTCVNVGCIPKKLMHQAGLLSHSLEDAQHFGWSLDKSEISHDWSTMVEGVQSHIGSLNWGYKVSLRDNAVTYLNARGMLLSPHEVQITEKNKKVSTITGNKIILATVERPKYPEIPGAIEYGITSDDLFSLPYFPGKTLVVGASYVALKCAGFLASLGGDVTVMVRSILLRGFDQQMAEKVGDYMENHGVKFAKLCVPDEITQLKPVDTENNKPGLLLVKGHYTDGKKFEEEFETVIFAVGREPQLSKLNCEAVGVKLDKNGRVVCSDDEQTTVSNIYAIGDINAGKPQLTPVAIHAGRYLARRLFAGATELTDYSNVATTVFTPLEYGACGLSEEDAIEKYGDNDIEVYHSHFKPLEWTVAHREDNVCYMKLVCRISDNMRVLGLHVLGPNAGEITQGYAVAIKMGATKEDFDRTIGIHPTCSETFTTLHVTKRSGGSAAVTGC
Experimental: The purified recombinant SjTGR proteins were produced according to the method described by Song et al.. The inhibition of TrxR activity by the recombinant SjTGR was performed as reported by Rai et al.. Briefly, 50 nM SjTGR and 1 mM NADPH were incubated with different concentrations of oxadiazole-2-oxides (2, 4, 6, 10, 20 μM) for 15 min at room temperature. Then, potassium phosphate buffer (pH 7.4) containing 10 mM EDTA, 100 μM NADPH, and 3 mM DTNB was added to start the reaction. The increase of absorbance at 412 nm was monitored during the first 2 min. All assays were done in triplicate.
50 nM SjTGR and 1 mM NADPH were incubated with different concentrations of oxadiazole-2-oxides (2, 4, 6, 10, 20 μM) for 15 min at room temperature. Then, potassium phosphate buffer (pH 7.4) containing 10 mM EDTA, 100 μM NADPH, 3 mM DTNB was added to start the reaction. The increase in absorbance at 412 nm was monitored during the first 2 min. All assays were done in triplicate. Results shown are the mean ± SD (n = 3)

juvenile S. japonicum = assay: microbe, parasite or virus in culture; format: cell-based; details: for killing at 2 µM / killing at 5 µM / killing at 50 µM / Killing activity 48hr / Killing activity 72hr / Killing activity 24hr: juvenile worms; for Killing activity 48hr / Killing activity 72hr / Killing activity 24hr: 10 μM
Experimental: Infected Oncomelania hupensis, provided by the Department of Snail Biology, Jiangsu Institute of Parasitic Diseases, were incubated at 25–28 °C, under illumination, for 2 h to hatch S. japonicum cercariae. The cercariae were collected from the water surface with clean cover glass and placed into a centrifuge tube using pre cooled RPMI 1640. Centrifugation was performed for 1 min at 1500 rpm, and then the steps above were repeated. After centrifugation, the supernatant solution was removed. The cercariae at the bottom were washed twice and resuspended with RPMI 1640. Approximately 20–30 cercariae (1 mL of the resuspension medium) were added to one well in a 24-well culture plate. They were incubated overnight at 37 °C with 5 % CO2. The survival rates and number of tails shed were observed under an inverted microscope. Cercariae that had shed their tails were used as juvenile S. japonicum.
20–30 juvenile worms were transferred into each well of a 24-well culture plate, containing 2 mL RPMI 1640 medium, 20 mM HEPES, 100 IU/mL penicillin, […] streptomycin and 10 % fetal bovine serum. Then, oxadiazole-2-oxides (2, 5, 10, and 50 μM), diluted with the RPMI 1640 medium, were added to their allocated wells. The worms in the negative control wells were treated with equal volumes of RPMI 1640 or DMSO and worms treated with AS were observed as positive controls. The juvenile worms’ survival rates were observed under an inverted phase contrast microscope (Leica, Wetzlar, Germany) at 24, 48 and 72 h. Parasite death was defined as an unclear internal structure of the juvenile worms, with incomplete tegument and contents overflowing radially, or unclear internal structure with complete tegument, but having no motor activity during 1 min of continuous observation. All assays were repeated three times.
^b Data collected by visual examination of worm movement and shape; % D = The number of worms dead / The total number of worms observed, and worms dead judged by unclear internal structure of juvenile worms with uncompleted tegument, and contents overflowing radially, or unclear internal structure with complete tegument, but having no motor activity during 1 min of continuous observation. The data presented are the average of three independent experiments.

adult S. japonicum = assay: microbe, parasite or virus in culture; format: cell-based; details: for mortality at 25 µM / killing at 25 µM / killing at 50 µM / killing at 100 µM: Schistosoma japonicum; for mortality at 25 µM: read-out: Mortality of adult worms
Text: ICR mice (20–22 g), were obtained from the Shanghai Sub-Center of Experimental Animals, Chinese Academy of Sciences. They were maintained at the Department of Experimental Animals, Jiangsu Institute of Parasitic Diseases. To infect each mouse, its abdominal skin was exposed to 50 S. japonica cercariae. All of the mice were executed to collect S. japonica adult worms, through portal vein perfusion, 35 days post-infection. The adult S. japonica collected were washed with RPMI 1640 medium and then kept in RPMI 1640 medium (pH 7.5) with HEPES 20 mM, penicillin (100 IU/mL), streptomycin ([…]) and 10 % fetal bovine serum. Then, two pairs of adult worms were transferred into each well of a 24-well culture plate, with 2 mL of the same medium. The worms were cultured at 37 °C in a humid atmosphere with 5 % CO2.
Adult worms were cultured in a 24-well culture plate for 30–60 min at 37 °C, in a humid atmosphere with 5 % CO2. Then, oxadiazole-2-oxides at different concentrations (10, 25, 50, 100 μM) were added. Equal volumes of RPMI 1640 or DMSO were applied as negative controls, while PZQ was applied as a positive control. The adult worm mobility and parasite survival rates were monitored using an inverted phase contrast microscope, at 24, 48 and 72 h. Parasite death was defined as there being no motor activity during 2 min of continuous observation, and morphological and tegumental alterations. All assays were repeated three times.
^b Data collected by visual examination of worm movement and shape; n.e. […] The data presented are the average of three independent experiments.

[1] = Schistosoma japonicum, 24 h, read-out: Killing activity 24hr
[2] = Schistosoma japonicum, 48 h, read-out: Killing activity 48hr
[3] = Schistosoma japonicum, 72 h, read-out: Killing activity 72hr
[4] = adult worms, 25 μM, 24 h, read-out: Killing activity 24hr
[5] = adult worms, 25 μM, 48 h, read-out: Killing activity 48hr
[6] = adult worms, 25 μM, 72 h, read-out: Killing activity 72hr
[7] = adult worms, 50 μM, 24 h, read-out: Killing activity 24hr
[8] = adult worms, 50 μM, 48 h, read-out: Killing activity 48hr
[9] = adult worms, 50 μM, 72 h, read-out: Killing activity 72hr
[10] = adult worms, 100 μM, 24 h, read-out: Killing activity 24hr
[11] = adult worms, 100 μM, 48 h, read-out: Killing activity 48hr
[12] = adult worms, 100 μM, 72 h, read-out: Killing activity 72hr

| SMILES | IC50 (recombinant SjTGR) [µM] | killing at 2 µM (juvenile S. japonicum; [1]) [%] | killing at 2 µM (juvenile S. japonicum; [2]) [%] | killing at 2 µM (juvenile S. japonicum; [3]) [%] | killing at 5 µM (juvenile S. japonicum; [1]) [%] | killing at 5 µM (juvenile S. japonicum; [2]) [%] | killing at 5 µM (juvenile S. japonicum; [3]) [%] | killing at 50 µM (juvenile S. japonicum; [1]) [%] | killing at 50 µM (juvenile S. japonicum; [2]) [%] | killing at 50 µM (juvenile S. japonicum; [3]) [%] | Killing activity 48hr (juvenile S. japonicum; 48 h) [%D] | Killing activity 72hr (juvenile S. japonicum; 72 h) [%D] | mortality at 25 µM (adult S. japonicum; 24 h) [%] | killing at 25 µM (adult S. japonicum; [4]) [%] | killing at 25 µM (adult S. japonicum; [5]) [%] | killing at 50 µM (adult S. japonicum; [9]) [%] | killing at 100 µM (adult S. japonicum; [12]) [%] | Killing activity 24hr (adult S. japonicum; adult worms, 10 μM, 24 h) | Killing activity 48hr (adult S. japonicum; adult worms, 10 μM, 48 h) | Killing activity 72hr (adult S. japonicum; adult worms, 10 μM, 72 h) | further results |
| --- | --- | --- | --- | --- | --- | --- | --- | --- | --- | --- | --- | --- | --- | --- | --- | --- | --- | --- | --- | --- | --- |
| N#Cc1c(-c2ccc(CBr)cc2)no[n+]1[O-] [Compound 22] | 9.7 | 18.1 | 30.1 | 41 | 18.6 | 30.2 | 41.8 | 100 | 100 | 100 | 41.4 | 69.0 | > 75 | 90 | 100 | 100 | 100 | 44.4%D | 66.7%D | 88.9%D | mortality at 50 µM (juvenile S. japonicum; Schistosoma japonicum, 24 h, read-out: Mortality of juvenile worms): > 70%; killing at 25 µM (adult S. japonicum; [6]): 100%; killing at 50 µM (adult S. japonicum; [7]): 90.9%; killing at 50 µM (adult S. japonicum; [8]): 100%; killing at 100 µM (adult S. japonicum; [10]): 100%; killing at 100 µM (adult S. japonicum; [11]): 100% |
| N#Cc1c(-c2ccc(COc3cc(=O)oc4ccccc34)cc2)no[n+]1[O-] [Compound 29] | > 20 | 30 | 30 | 30 | 30 | 32.5 | 40 | 42.3 | 51.9 | 75 | 31.7 | 65.1 | – | – | – | 16.7 | 66.7 | n.e. | n.e. | n.e. | IC50 of SjTGR (recombinant SjTGR): did not inhibit; Killing activity 24hr (juvenile S. japonicum; 24 h): 30.2%D; Killing activity 24hr (adult S. japonicum; adult worms, 25 μM, 24 h): n.e.; Killing activity 48hr (adult S. japonicum; adult worms, 25 μM, 48 h): n.e.; Killing activity 72hr (adult S. japonicum; adult worms, 25 μM, 72 h): sluggish; Killing activity 24hr (adult S. japonicum; adult worms, 50 μM, 24 h): n.e.; Killing activity 48hr (adult S. japonicum; adult worms, 50 μM, 48 h): sluggish; Killing activity 24hr (adult S. japonicum; adult worms, 100 μM, 24 h): n.e.; Mortality of adult worms (adult S. japonicum; adult worms, 100 μM, 24 h): did not cause death; Killing activity 48hr (adult S. japonicum; adult worms, 100 μM, 48 h): sluggish |
| N#Cc1c(-c2ccc(OCCCCBr)cc2)no[n+]1[O-] [Compound 14] | 15.5 | 21.6 | 31.1 | 35.1 | 26.4 | 33.3 | 38.9 | 46.4 | 66.4 | 80 | 69.6 | 69.6 | > 75 | 75 | 87.5 | 100 | 100 | 33.3%D | 44.4%D | 77.8%D | Killing activity 24hr (juvenile S. japonicum; 24 h): 30.4%D; killing at 25 µM (adult S. japonicum; [6]): 100%; killing at 50 µM (adult S. japonicum; [7]): 100%; killing at 50 µM (adult S. japonicum; [8]): 100%; killing at 100 µM (adult S. japonicum; [10]): 100%; killing at 100 µM (adult S. japonicum; [11]): 100% |
